Molecular target: Platelet-activating factor receptor (Oryctolagus cuniculus)
Experiment: Antagonist activity against platelet activating factor (PAF) receptor in rabbit platelet membranes using [3H]C18-PAF as radioligand

| Ki [nM] | Structure (SMILES) |
| --- | --- |
| 3.4 | O=C(c1cn(C(=O)c2ccc(Cl)cc2)c2ccccc12)[C@@H]1CSC(c2cccnc2)N1 (stereo partly drawn) [(4-Chloro-phenyl)-[3-((R)-2-pyridin-3-yl-thiazolidine-4-carbonyl)-indol-1-yl]-methanone] |
| 1.6 | COc1cc(C(=O)c2cccc(NC(=O)[C@@H]3CSC(c4cccnc4)N3)c2)cc(OC)c1OC (stereo partly drawn) [(R)-2-Pyridin-3-yl-thiazolidine-4-carboxylic acid [3-(3,4,5-trimethoxy-benzoyl)-phenyl]-amide] |
| 1.9 | O=C(c1c[nH]c2cc(Oc3ccc(F)cc3)ccc12)[C@@H]1CSC(c2cccnc2)N1 (stereo partly drawn) [[6-(4-Fluoro-phenoxy)-1H-indol-3-yl]-((R)-2-pyridin-3-yl-thiazolidin-4-yl)-methanone] |
| 8.8 | CC(C)(C)NC(=O)n1cc(C(=O)[C@@H]2CSC(c3cccnc3)N2)c2ccccc21 (stereo partly drawn) [3-((R)-2-Pyridin-3-yl-thiazolidine-4-carbonyl)-indole-1-carboxylic acid tert-butylamide] |
| 1 | CC(C)(C)OC(=O)n1cc(C(=O)[C@@H]2CSC(c3cccnc3)N2)c2ccccc21 (stereo partly drawn) [3-((R)-2-Pyridin-3-yl-thiazolidine-4-carbonyl)-indole-1-carboxylic acid tert-butyl ester] |
| 1.8 | CN(C)C(=O)n1cc(C(=O)[C@@H]2CSC(c3cccnc3)N2)c2ccc(OCc3ccc(F)cc3)cc21 (stereo partly drawn) [6-(4-Fluoro-benzyloxy)-3-((R)-2-pyridin-3-yl-thiazolidine-4-carbonyl)-indole-1-carboxylic acid dimethylamide] |
| 0.8 | CN(C)C(=O)n1cc(C(=O)[C@@H]2CSC(c3cccnc3)N2)c2ccccc21 (stereo partly drawn) [3-((R)-2-Pyridin-3-yl-thiazolidine-4-carbonyl)-indole-1-carboxylic acid dimethylamide] |
| 8.8 | CC(C)(C)C(=O)n1cc(C(=O)[C@@H]2CSC(c3cccnc3)N2)c2ccccc21 (stereo partly drawn) [2,2-Dimethyl-1-[3-((R)-2-pyridin-3-yl-thiazolidine-4-carbonyl)-indol-1-yl]-propan-1-one] |
| 1.3 | CN(C)C(=O)n1cc(C(=O)[C@@H]2CSC(c3cccnc3)N2)c2ccc(C#Cc3ccccc3)cc21 (stereo partly drawn) [6-Phenylethynyl-3-((R)-2-pyridin-3-yl-thiazolidine-4-carbonyl)-indole-1-carboxylic acid dimethylamide] |
| 1.4 | CN(C)C(=O)n1cc(C(=O)[C@@H]2CSC(c3cccnc3)N2)c2ccc(OCc3ccccc3)cc21 (stereo partly drawn) [6-Benzyloxy-3-((R)-2-pyridin-3-yl-thiazolidine-4-carbonyl)-indole-1-carboxylic acid dimethylamide; compound with oxalic acid] |
| 1 | CN(C)C(=O)n1cc(C(=O)[C@@H]2CSC(c3cccnc3)N2)c2ccc(C(=O)c3ccccc3)cc21 (stereo partly drawn) [6-Benzoyl-3-((R)-2-pyridin-3-yl-thiazolidine-4-carbonyl)-indole-1-carboxylic acid dimethylamide] |
| 15 | O=C(C1CSC(c2cccnc2)N1)n1ccc2cc(OCc3ccccc3)ccc21 (stereo not given) [(5-Benzyloxy-indol-1-yl)-(2-pyridin-3-yl-thiazolidin-4-yl)-methanone] |
| 9750 | CC(C)(C)OC(=O)N1C(c2cccnc2)SC[C@H]1C(=O)c1c[nH]c2ccccc12 (stereo partly drawn) [(R)-4-(1H-Indole-3-carbonyl)-2-pyridin-3-yl-thiazolidine-3-carboxylic acid tert-butyl ester] |
| 88 | Cc1c(C(=O)[C@@H]2CSC(c3cccnc3)N2)c2ccccc2n1C(=O)N1CCOCC1 (stereo partly drawn) [[2-Methyl-3-((R)-2-pyridin-3-yl-thiazolidine-4-carbonyl)-indol-1-yl]-morpholin-4-yl-methanone] |
| 95 | O=C(c1ccccc1)c1ccc2ccn(C(=O)[C@@H]3CSC(c4cccnc4)N3)c2c1 (stereo partly drawn) [(6-Benzoyl-indol-1-yl)-((R)-2-pyridin-3-yl-thiazolidin-4-yl)-methanone] |
| 3.6 | CN(C)C(=O)n1cc(C(=O)[C@@H]2CSC(c3cccnc3)N2)c2ccc(-c3ccccc3)cc21 (stereo partly drawn) [6-Phenyl-3-((R)-2-pyridin-3-yl-thiazolidine-4-carbonyl)-indole-1-carboxylic acid dimethylamide] |
| 1 | CC(C)(C)OC(=O)n1cc(C(=O)[C@@H]2CSC(c3cccnc3)N2)c2ccc(OCc3ccccc3)cc21 (stereo partly drawn) [6-Benzyloxy-3-((R)-2-pyridin-3-yl-thiazolidine-4-carbonyl)-indole-1-carboxylic acid tert-butyl ester] |
| 17800 | CC(=O)N1C(c2cccnc2)SC[C@H]1C(=O)c1c[nH]c2ccccc12 (stereo partly drawn) [1-[(R)-4-(1H-Indole-3-carbonyl)-2-pyridin-3-yl-thiazolidin-3-yl]-ethanone] |
| 1.5 | O=C(c1cn(C(=O)N2CCOCC2)c2ccccc12)[C@@H]1CSC(c2cccnc2)N1 (stereo partly drawn) [Morpholin-4-yl-[3-((R)-2-pyridin-3-yl-thiazolidine-4-carbonyl)-indol-1-yl]-methanone] |
| 1.6 | O=C(c1c[nH]c2cc(OCc3ccc(F)cc3)ccc12)[C@@H]1CSC(c2cccnc2)N1 (stereo partly drawn) [[6-(4-Fluoro-benzyloxy)-1H-indol-3-yl]-((R)-2-pyridin-3-yl-thiazolidin-4-yl)-methanone] |
| 10 | O=C(c1cn(C(=O)N2CCOCC2)c2cc(OCc3ccccc3)ccc12)[C@@H]1CSC(c2cccnc2)N1 (stereo partly drawn) [[6-Benzyloxy-3-((R)-2-pyridin-3-yl-thiazolidine-4-carbonyl)-indol-1-yl]-morpholin-4-yl-methanone] |
| 31 | CN(C(=O)n1cc(C(=O)[C@@H]2CSC(c3cccnc3)N2)c2ccccc21)c1ccccc1 (stereo partly drawn) [3-((R)-2-Pyridin-3-yl-thiazolidine-4-carbonyl)-indole-1-carboxylic acid methyl-phenyl-amide] |
| 220 | O=CN1C(c2cccnc2)SC[C@H]1C(=O)c1c[nH]c2ccccc12 (stereo partly drawn) [(R)-4-(1H-Indole-3-carbonyl)-2-pyridin-3-yl-thiazolidine-3-carbaldehyde] |

| Structure (SMILES) | Ki [nM] |
| --- | --- |
| COC(=O)CCn1cc(C(=O)[C@@H]2CSC(c3cccnc3)N2)c2ccccc21 (stereo partly drawn) [3-[3-((R)-2-Pyridin-3-yl-thiazolidine-4-carbonyl)-indol-1-yl]-propionic acid methyl ester] | 4.6 |
| O=C(c1c[nH]c2ccccc12)[C@@H]1CSC(c2cccnc2)N1 (stereo partly drawn) [(1H-Indol-3-yl)-((R)-2-pyridin-3-yl-thiazolidin-4-yl)-methanone; compound with oxalic acid] | 3.4 |
| O=C(c1cn(CC(F)(F)F)c2ccccc12)[C@@H]1CSC(c2cccnc2)N1 (stereo partly drawn) [((R)-2-Pyridin-3-yl-thiazolidin-4-yl)-[1-(2,2,2-trifluoro-ethyl)-1H-indol-3-yl]-methanone] | 21 |
| O=C(O)Cn1cc(C(=O)[C@@H]2CSC(c3cccnc3)N2)c2ccccc21 (stereo not given in full) [[3-(2-Pyridin-3-yl-thiazolidine-4-carbonyl)-indol-1-yl]-acetic acid] | 30 |
| NC(=O)Cn1cc(C(=O)[C@@H]2CSC(c3cccnc3)N2)c2ccccc21 (stereo partly drawn) [2-[3-((R)-2-Pyridin-3-yl-thiazolidine-4-carbonyl)-indol-1-yl]-acetamide] | 5 |
| Cc1[nH]c2ccccc2c1C(=O)[C@@H]1CSC(c2cccnc2)N1 (stereo partly drawn) [(2-Methyl-1H-indol-3-yl)-((R)-2-pyridin-3-yl-thiazolidin-4-yl)-methanone] | 23 |
| O=C(c1cn(Cc2ccccc2)c2ccccc12)[C@@H]1CSC(c2cccnc2)N1 (stereo partly drawn) [(1-Benzyl-1H-indol-3-yl)-((R)-2-pyridin-3-yl-thiazolidin-4-yl)-methanone] | 49 |

— BindingDB's records for doi:10.1021/jm00039a015 (Abbott Laboratories, 1994)
